Source: ChEMBL document CHEMBL1157703, “Synthesis, pharmacological studies and molecular modeling of some tetracyclic 1,3-diazepinium chlorides” (Bioorg Med Chem, 2010)
Values belong to the molecule of their own block, whether it stands above or below them. Activity calls are given as the source filed them. No cut-off for these calls is given here.

Legend:
[1] = biological target: Sodium-dependent dopamine transporter (Homo sapiens) (UniProt Q01959)
Mus musculus [2] = organism: Mus musculus; test: Effect on behavioral activity in Albino mouse assessed as inhibition of diazepam-induced loss of screen grip at 0.2 ml/10 g by hippocratic screen; assay type: functional, organism-based
Mus musculus [3] = organism: Mus musculus; test: Effect on behavioral activity in Albino mouse assessed as inhibition of diazepam-induced decrease in respiratory rate at 0.2 ml/10 g by hippocratic screen; assay type: functional, organism-based
Mus musculus [4] = organism: Mus musculus; test: Effect on behavioral activity in Albino mouse assessed as inhibition of diazepam-induced loss of analgesia at 0.2 ml/10 g by hippocratic screen; assay type: functional, organism-based
Mus musculus [5] = organism: Mus musculus; test: Effect on behavioral activity in Albino mouse assessed as inhibition of diazepam-induced anesthesia at 0.2 ml/10 g by hippocratic screen; assay type: functional, organism-based
Mus musculus [6] = organism: Mus musculus; test: Effect on behavioral activity in Albino mouse assessed as inhibition of diazepam-induced paralysis at 0.2 ml/10 g by hippocratic screen; assay type: functional, organism-based
Mus musculus [7] = organism: Mus musculus; test: Effect on behavioral activity in Albino mouse assessed as inhibition of diazepam-induced tremors at 0.2 ml/10 g by hippocratic screen; assay type: functional, organism-based
Mus musculus [8] = organism: Mus musculus; test: Effect on behavioral activity in Albino mouse assessed as inhibition of diazepam-induced startle reaction at 0.2 ml/10 g by hippocratic screen; assay type: functional, organism-based
Mus musculus [9] = test: CNS toxicity in Albino mouse assessed as anesthetic response at 0.2 ml/10 g by hippocratic screen; assay type: organism-based; conditions: in vivo
Mus musculus [10] = organism: Mus musculus; test: CNS toxicity in Albino mouse assessed as decrease in motor activity at 0.2 ml/10 g by hippocratic screen; assay type: organism-based; conditions: in vivo
Mus musculus [11] = organism: Mus musculus; test: CNS toxicity in Albino mouse assessed as ataxia at 0.2 ml/10 g by hippocratic screen; assay type: organism-based; conditions: in vivo
Mus musculus [12] = organism: Mus musculus; test: CNS toxicity in Albino mouse assessed as loss of righting reflex at 0.2 ml/10 g by hippocratic screen; assay type: organism-based; conditions: in vivo
Mus musculus [13] = organism: Mus musculus; test: CNS toxicity in Albino mouse assessed as loss of screen grip at 0.2 ml/10 g by hippocratic screen; assay type: organism-based; conditions: in vivo
Mus musculus [14] = organism: Mus musculus; test: CNS toxicity in Albino mouse assessed as pinnal reflex at 0.2 ml/10 g by hippocratic screen; assay type: organism-based; conditions: in vivo
Mus musculus [15] = organism: Mus musculus; test: CNS toxicity in Albino mouse assessed as change in respiratory rate at 0.2 ml/10 g by hippocratic screen; assay type: organism-based; conditions: in vivo
Mus musculus [16] = organism: Mus musculus; test: CNS toxicity in Albino mouse assessed as loss of analgesic activity at 0.2 ml/10 g by hippocratic screen; assay type: organism-based; conditions: in vivo
Mus musculus [17] = organism: Mus musculus; test: CNS toxicity in Albino mouse assessed as paralysis at 0.2 ml/10 g by hippocratic screen; assay type: organism-based; conditions: in vivo
Mus musculus [18] = organism: Mus musculus; test: CNS toxicity in Albino mouse assessed as tremors at 0.2 ml/10 g by hippocratic screen; assay type: organism-based; conditions: in vivo
Mus musculus [19] = organism: Mus musculus; test: CNS toxicity in Albino mouse assessed as startle reaction at 0.2 ml/10 g by hippocratic screen; assay type: organism-based; conditions: in vivo
Mus musculus [20] = organism: Mus musculus; test: Effect on behavioral activity in Albino mouse assessed as inhibition of diazepam-induced decrease in motor activity at 0.2 ml/10 g for 10 to 15 mins by hippocratic screen; assay type: functional, organism-based
Mus musculus [21] = organism: Mus musculus; test: Effect on behavioral activity in Albino mouse assessed as inhibition of diazepam-induced ataxia at 0.2 ml/10 g after 5 mins by hippocratic screen; assay type: functional, organism-based
Mus musculus [22] = organism: Mus musculus; test: Effect on behavioral activity in Albino mouse assessed as inhibition of diazepam-induced loss of righting reflex at 0.2 ml/10 g after 1 hr by hippocratic screen; assay type: functional, organism-based
Mus musculus [23] = organism: Mus musculus; test: Effect on behavioral activity in Albino mouse assessed as inhibition of diazepam-induced loss of righting reflex at 0.2 ml/10 g after 2 hrs by hippocratic screen; assay type: functional, organism-based
Mus musculus [24] = organism: Mus musculus; test: Effect on behavioral activity in Albino mouse assessed as inhibition of diazepam-induced pinnal reflex at 0.2 ml/10 g by hippocratic screen; assay type: functional, organism-based
Mus musculus [25] = organism: Mus musculus; test: Effect on behavioral activity in Albino mouse assessed as inhibition of diazepam-induced decrease in motor activity at 0.2 ml/10 g for 2 hrs by hippocratic screen; assay type: functional, organism-based
Mus musculus [26] = organism: Mus musculus; test: Effect on behavioral activity in Albino mouse assessed as inhibition of diazepam-induced ataxia at 0.2 ml/10 g for 15 mins by hippocratic screen; assay type: functional, organism-based

Sequence of Sodium-dependent dopamine transporter (Homo sapiens) (Q01959 whole entry): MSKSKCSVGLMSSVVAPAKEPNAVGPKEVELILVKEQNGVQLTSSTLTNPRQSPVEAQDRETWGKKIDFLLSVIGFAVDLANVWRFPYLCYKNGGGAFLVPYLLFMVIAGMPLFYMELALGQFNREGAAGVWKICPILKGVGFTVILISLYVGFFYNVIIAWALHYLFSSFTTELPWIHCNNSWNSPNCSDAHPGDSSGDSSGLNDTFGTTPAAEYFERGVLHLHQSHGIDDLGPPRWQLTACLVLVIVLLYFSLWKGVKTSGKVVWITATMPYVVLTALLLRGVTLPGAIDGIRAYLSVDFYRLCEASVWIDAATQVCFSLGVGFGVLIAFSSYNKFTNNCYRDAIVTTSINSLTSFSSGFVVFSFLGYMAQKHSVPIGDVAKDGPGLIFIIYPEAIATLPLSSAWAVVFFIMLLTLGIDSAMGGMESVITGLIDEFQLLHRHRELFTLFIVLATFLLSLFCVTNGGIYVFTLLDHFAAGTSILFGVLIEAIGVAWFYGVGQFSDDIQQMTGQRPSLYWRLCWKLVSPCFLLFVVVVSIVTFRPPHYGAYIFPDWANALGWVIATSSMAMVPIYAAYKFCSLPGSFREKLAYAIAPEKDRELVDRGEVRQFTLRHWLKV

Ki [1]: > 10 µM
Compound: NCCc1ccc(O)c(O)c1

Compound: COc1ccc2c3c(oc2c1)C(=O)Nc1cc(C)cc[n+]1C3.[Cl-]
Activity (Mus musculus [2]): inactive
Activity (Mus musculus [3]): inactive
Activity (Mus musculus [4]): inactive
Activity (Mus musculus [5]): inactive
Activity (Mus musculus [6]): inactive
Activity (Mus musculus [7]): inactive
Activity (Mus musculus [8]): inactive
Activity (Mus musculus [9]): Non-toxic
Activity (Mus musculus [10]): Non-toxic
Activity (Mus musculus [11]): Non-toxic
Activity (Mus musculus [12]): Non-toxic
Activity (Mus musculus [13]): Non-toxic
Activity (Mus musculus [14]): Non-toxic
Activity (Mus musculus [15]): Non-toxic
Activity (Mus musculus [16]): Non-toxic
Activity (Mus musculus [17]): Non-toxic
Activity (Mus musculus [18]): Non-toxic
Activity (Mus musculus [19]): Non-toxic
Activity (Mus musculus [20]): Active
Activity (Mus musculus [21]): inactive
Activity (Mus musculus [22]): Active
Activity (Mus musculus [23]): inactive
Activity (Mus musculus [24]): inactive

Compound: COc1ccc2c3c(oc2c1)C(=O)Nc1cccc(C)[n+]1C3.[Cl-]
Activity (Mus musculus [2]): inactive
Activity (Mus musculus [3]): inactive
Activity (Mus musculus [4]): inactive
Activity (Mus musculus [5]): inactive
Activity (Mus musculus [6]): inactive
Activity (Mus musculus [7]): inactive
Activity (Mus musculus [8]): inactive
Activity (Mus musculus [9]): Non-toxic
Activity (Mus musculus [10]): Non-toxic
Activity (Mus musculus [11]): Non-toxic
Activity (Mus musculus [12]): Non-toxic
Activity (Mus musculus [13]): Non-toxic
Activity (Mus musculus [14]): Non-toxic
Activity (Mus musculus [15]): Non-toxic
Activity (Mus musculus [16]): Non-toxic
Activity (Mus musculus [17]): Non-toxic
Activity (Mus musculus [18]): Non-toxic
Activity (Mus musculus [19]): Non-toxic
Activity (Mus musculus [25]): Active
Activity (Mus musculus [26]): Active
Activity (Mus musculus [23]): inactive
Activity (Mus musculus [24]): inactive
